Reference: patent publication US20100267561A1, “HERBICIDAL PYRIDAZINONE DERIVATIVES” (priority 2007, published 2010)

Tests used:
Assay type in all cases: in vivo
[1] = test system: giant foxtail (Setaria faberi); assay: Test A pre-/postemergence plant response
In short: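 Seeds sown in loam–sand blend; test chemicals in non-phytotoxic solvent with surfactant applied preemergence as directed soil spray and, concurrently, postemergence to plants 2–10 cm tall at one- to two-leaf stage. Greenhouse ~10 days, then visual injury rating vs untreated controls on 0–100 scale (0 = no effect, 100 = complete control).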

[2] = test system: bermudagrass (Cynodon dactylon); assay: Test B pre-/postemergence plant response; details: for Bermudagrass plant response rating: 8 g ai/ha
Description: (§1) Seeds of plant species selected from blackgrass (Alopecurus myosuroides), downy bromegrass (Bromus tectorum), green foxtail (Setaria viridis), Italian ryegrass (Lolium multiflorum), wheat (Triticum aestivum), wild oat (Avena fatua), catchweed bedstraw (Galium aparine), bermudagrass (Cynodon dactylon), surinam grass (Brachiaria decumbens), cocklebur (Xanthium strumarium), corn (Zea mays), large crabgrass (Digitaria sanguinalis), woolly cupgrass (Eriochloa villosa), giant foxtail (Setaria faberii), goosegrass (Eleusine indica), johnsongrass (Sorghum halepense), kochia (Kochia scoparia), lambsquarters (Chenopodium album), morningglory (Ipomoea coccinea), eastern black (E.B.) nightshade (Solanum ptycanthum), yellow nutsedge (Cyperus esculentus), pigweed (Amaranthus retroflexus), common ragweed (Ambrosia elation), Russian thistle (Salsola iberica), soybean (Glycine max), common (oilseed) sunflower (Helianthus annuus), and velvetleaf (Abutilon theophrasti) were planted and treated preemergence with test chemicals formulated in a non-phytotoxic solvent mixture which included a surfactant.
(§2) At the same time, plants selected from these crop and weed species and also winter barley (Hordeum vulgare), canarygrass (Phalaris minor), chickweed (Stellaria media) and windgrass (Apera spica-venti) were treated with postemergence applications of some of the test chemicals formulated in the same manner. Plants ranged in height from 2 to 18 cm (1- to 4-leaf stage) for postemergence treatments.
(§3) Plant species in the flooded paddy test consisted of rice (Oryza sativa), umbrella sedge (Cyperus difformis), ducksalad (Heteranthera limosa) and barnyardgrass (Echinochloa crus-galli) grown to the 2-leaf stage for testing. At time of treatment, test pots were flooded to 3 cm above the soil surface, treated by application of test compounds directly to the paddy water, and then maintained at that water depth for the duration of the test. Treated plants and controls were maintained in a greenhouse for 13 to 15 days, after which time all species were compared to controls and visually evaluated. Plant response ratings, summarized in Table B, are based on a scale of 0 to 100 where 0 is no effect and 100 is complete control. A dash (-) response means no test result.

[3] = test system: blackgrass (Alopecurus myosuroides); assay: Test B pre-/postemergence plant response; details: for Blackgrass plant response rating: 8 g ai/ha
Description: as §1, §2, §3

[4] = test system: common (oilseed) sunflower (Helianthus annuus); assay: Test B pre-/postemergence plant response; details: Preemergence; for Sunflower plant response rating: 8 g ai/ha
Description: as §1, §2, §3

[5] = test system: downy bromegrass (Bromus tectorum); assay: Test B pre-/postemergence plant response; details: for Bromegrass, Downy plant response rating: 8 g ai/ha
Description: as §1, §2, §3

[6] = test system: giant foxtail (Setaria faberii); assay: Test B pre-/postemergence plant response; details: for Foxtail, Giant plant response rating: 8 g ai/ha
Description: as §1, §2, §3

[7] = test system: goosegrass (Eleusine indica); assay: Test B pre-/postemergence plant response; details: for Goosegrass plant response rating: 8 g ai/ha
Description: as §1, §2, §3

[8] = test system: johnsongrass (Sorghum halepense); assay: Test B pre-/postemergence plant response; details: for Johnsongrass plant response rating: 8 g ai/ha
Description: as §1, §2, §3

[9] = test system: pigweed (Amaranthus retroflexus); assay: Test B pre-/postemergence plant response; details: for Pigweed plant response rating: 8 g ai/ha
Description: as §1, §2, §3

[10] = test system: soybean (Glycine max); assay: Test B pre-/postemergence plant response; details: for Soybean plant response rating: 8 g ai/ha
Description: as §1, §2, §3

[11] = test system: velvetleaf (Abutilon theophrasti); assay: Test B pre-/postemergence plant response; details: for Velvetleaf plant response rating: 8 g ai/ha
Description: as §1, §2, §3

[12] = test system: wheat (Triticum aestivum); assay: Test B pre-/postemergence plant response; details: for Wheat plant response rating: 8 g ai/ha
Description: as §1, §2, §3

[13] = Postemergence, 125 g ai/ha, 0 to 100 scale, 0 no effect, 100 complete control
[14] = Postemergence, 500 g ai/ha, 0 to 100 scale, 0 no effect, 100 complete control
[15] = Preemergence, 125 g ai/ha, 0 to 100 scale (0 no effect, 100 complete control)
[16] = Preemergence, 500 g ai/ha, 0 to 100 scale (0 no effect, 100 complete control)
[17] = Preemergence, scale 0 to 100 (0 no effect, 100 complete control)
[18] = Preemergence, 16 g ai/ha, scale 0 to 100 (0 no effect, 100 complete control)
[19] = Preemergence, 31 g ai/ha, 0 to 100 scale, 0 no effect, 100 complete control
[20] = Preemergence, 62 g ai/ha, scale 0 to 100
[21] = 16 g ai/ha, scale 0 to 100 (0 no effect, 100 complete control)
[22] = 31 g ai/ha, 0 to 100 scale, 0 no effect, 100 complete control
[23] = Postemergence, 16 g ai/ha, scale 0 to 100
[24] = Postemergence, 31 g ai/ha, scale 0 to 100, 0 no effect, 100 complete control
[25] = Postemergence, 62 g ai/ha, scale 0 to 100

Cn1ncc(O)c(-c2nn(-c3ccc(Cl)cc3)cc2Br)c1=O [Compound 31]
Plant response rating, Foxtail, Giant [1, 13]: 90
Plant response rating, Foxtail, Giant [1, 14]: 90
Plant response rating, Foxtail, Giant [1, 15]: 100
Plant response rating, Foxtail, Giant [1, 16]: 100
Bermudagrass plant response rating [2, 17]: 95
Plant response rating, Bermudagrass [2, 18]: 100
Plant response rating, Bermudagrass [2, 19]: 100
Plant response rating, Bermudagrass [2, 20]: 100
Plant response rating, Blackgrass [3, 18]: 90
Plant response rating, Blackgrass [3, 19]: 98
Plant response rating, Blackgrass [3, 20]: 100
Blackgrass plant response rating ([3]; Preemergence, scale 0 to 100): 80
Plant response rating, Sunflower [4, 21]: 0
Plant response rating, Sunflower [4, 22]: 0
Plant response rating, Sunflower ([4]; 62 g ai/ha, scale 0 to 100): 0
Sunflower plant response rating ([4]; scale 0 to 100): 0
Plant response rating, Bromegrass, Downy [5, 18]: 0
Plant response rating, Bromegrass, Downy [5, 19]: 65
Plant response rating, Bromegrass, Downy [5, 20]: 85
Bromegrass, Downy plant response rating ([5]; Preemergence, scale 0 to 100): 0
Plant response rating, Foxtail, Giant [6, 18]: 90
Plant response rating, Foxtail, Giant [6, 19]: 100
Plant response rating, Foxtail, Giant [6, 20]: 100
Foxtail, Giant plant response rating ([6]; Preemergence, scale 0 to 100): 90
Plant response rating, Goosegrass [7, 18]: 90
Plant response rating, Goosegrass [7, 19]: 100
Plant response rating, Goosegrass [7, 20]: 100
Goosegrass plant response rating ([7]; Preemergence, scale 0 to 100): 85
Plant response rating, Johnsongrass [8, 18]: 60
Plant response rating, Johnsongrass [8, 19]: 75
Plant response rating, Johnsongrass [8, 20]: 75
Johnsongrass plant response rating ([8]; Preemergence, scale 0 to 100): 55
Plant response rating, Pigweed [9, 18]: 0
Plant response rating, Pigweed [9, 19]: 0
Plant response rating, Pigweed [9, 20]: 0
Pigweed plant response rating ([9]; Preemergence, scale 0 to 100): 0
Plant response rating, Soybean [10, 18]: 0
Plant response rating, Soybean [10, 19]: 0
Plant response rating, Soybean [10, 20]: 60
Soybean plant response rating ([10]; Preemergence, scale 0 to 100): 0
Plant response rating, Velvetleaf [11, 18]: 0
Plant response rating, Velvetleaf [11, 19]: 0
Plant response rating, Velvetleaf [11, 20]: 0
Velvetleaf plant response rating ([11]; Preemergence, scale 0 to 100): 0
Plant response rating, Wheat [12, 18]: 0
Plant response rating, Wheat [12, 19]: 0
Plant response rating, Wheat [12, 20]: 80
Wheat plant response rating ([12]; Preemergence, scale 0 to 100): 0

CCc1cc(-c2ccc(Cl)c(Cl)c2)nn1-c1c(O)cnn(C)c1=O [Compound 20]
Plant response rating, Foxtail, Giant [1, 13]: 90
Plant response rating, Foxtail, Giant [1, 14]: 100
Plant response rating, Foxtail, Giant [1, 15]: 90
Plant response rating, Foxtail, Giant [1, 16]: 100
Bermudagrass plant response rating ([2]; postemergence, 0-100 scale): 0
Plant response rating, Bermudagrass [2, 23]: 0
Plant response rating, Bermudagrass [2, 24]: 0
Plant response rating, Bermudagrass [2, 25]: 0
Bermudagrass plant response rating [2, 17]: 0
Plant response rating, Bermudagrass [2, 18]: 0
Plant response rating, Bermudagrass [2, 19]: 0
Plant response rating, Bermudagrass [2, 20]: 70
Blackgrass plant response rating ([3]; postemergence, 0-100 scale): 30
Plant response rating, Blackgrass [3, 23]: 50
Plant response rating, Blackgrass [3, 25]: 60
Plant response rating, Blackgrass [3, 19]: 90
Plant response rating, Blackgrass [3, 20]: 90
Blackgrass plant response rating ([3]; Preemergence, scale 0 to 100): 10
Plant response rating, Sunflower [4, 21]: 0
Plant response rating, Sunflower [4, 22]: 30
Plant response rating, Sunflower ([4]; 62 g ai/ha, scale 0 to 100): 40
Sunflower plant response rating ([4]; scale 0 to 100): 0
Bromegrass, Downy plant response rating ([5]; postemergence, 0-100 scale): 0
Plant response rating, Bromegrass, Downy [5, 23]: 0
Plant response rating, Bromegrass, Downy [5, 24]: 40
Plant response rating, Bromegrass, Downy [5, 25]: 50
Plant response rating, Bromegrass, Downy [5, 18]: 0
Plant response rating, Bromegrass, Downy [5, 19]: 0
Plant response rating, Bromegrass, Downy [5, 20]: 0
Bromegrass, Downy plant response rating ([5]; Preemergence, scale 0 to 100): 0
Foxtail, Giant plant response rating ([6]; postemergence, 0-100 scale): 80
Plant response rating, Foxtail, Giant [6, 23]: 90
Plant response rating, Foxtail, Giant [6, 24]: 95
Plant response rating, Foxtail, Giant [6, 25]: 95
Plant response rating, Foxtail, Giant [6, 18]: 0
Plant response rating, Foxtail, Giant [6, 19]: 50
Plant response rating, Foxtail, Giant [6, 20]: 100
Foxtail, Giant plant response rating ([6]; Preemergence, scale 0 to 100): 0
Goosegrass plant response rating ([7]; postemergence, 0-100 scale): 5
Plant response rating, Goosegrass [7, 23]: 20
Plant response rating, Goosegrass [7, 24]: 65
Plant response rating, Goosegrass [7, 25]: 80
Plant response rating, Goosegrass [7, 18]: 0
Plant response rating, Goosegrass [7, 20]: 70
Goosegrass plant response rating ([7]; Preemergence, scale 0 to 100): 0
Johnsongrass plant response rating ([8]; postemergence, 0-100 scale): 30
Plant response rating, Johnsongrass [8, 23]: 75
Plant response rating, Johnsongrass [8, 24]: 100
Plant response rating, Johnsongrass [8, 25]: 100
Plant response rating, Johnsongrass [8, 18]: 50
Plant response rating, Johnsongrass [8, 19]: 75
Plant response rating, Johnsongrass [8, 20]: 95
Johnsongrass plant response rating ([8]; Preemergence, scale 0 to 100): 0
Pigweed plant response rating ([9]; postemergence, 0-100 scale): 0
Plant response rating, Pigweed [9, 23]: 0
Plant response rating, Pigweed [9, 24]: 0
Plant response rating, Pigweed [9, 25]: 0
Plant response rating, Pigweed [9, 18]: 0
Plant response rating, Pigweed [9, 19]: 0
Plant response rating, Pigweed [9, 20]: 0
Pigweed plant response rating ([9]; Preemergence, scale 0 to 100): 0
Soybean plant response rating ([10]; postemergence, 0-100 scale): 0
Plant response rating, Soybean [10, 23]: 0
Plant response rating, Soybean [10, 24]: 0
Plant response rating, Soybean [10, 25]: 0
Velvetleaf plant response rating ([11]; postemergence, 0-100 scale): 0
Plant response rating, Velvetleaf [11, 23]: 0
Plant response rating, Velvetleaf [11, 24]: 0
Plant response rating, Velvetleaf [11, 25]: 0
Plant response rating, Velvetleaf [11, 18]: 0
Plant response rating, Velvetleaf [11, 19]: 0
Plant response rating, Velvetleaf [11, 20]: 0
Velvetleaf plant response rating ([11]; Preemergence, scale 0 to 100): 0
Wheat plant response rating ([12]; postemergence, 0-100 scale): 0
Plant response rating, Wheat [12, 23]: 20
Plant response rating, Wheat [12, 24]: 20
Plant response rating, Wheat [12, 25]: 60
Plant response rating, Wheat [12, 18]: 0
Plant response rating, Wheat [12, 19]: 0
Plant response rating, Wheat [12, 20]: 0
Wheat plant response rating ([12]; Preemergence, scale 0 to 100): 0
